This note sets out measurements from ChEMBL document CHEMBL2163242, “Development of anti-coxsackievirus agents targeting 3C protease” (Bioorg Med Chem Lett, 2012).

The term IC50 denotes the concentration at which inhibition is half-maximal. Lower therefore signals greater potency in that assay. By inhibition is commonly meant the relative decrease from the control value, in per cent.

In one data set the target is Genome polyprotein (Coxsackievirus B3 (strain Nancy), UniProt P03313). The experiment in a line: Inhibition of Coxsackievirus B3 protease 3c using NMA-EALFQGPPVK-DNP as substrate incubated for 5 mins prior to substrate addition measured after 1 hr by FRET assay.
In data set [1] the test system is Coxsackievirus B3. Briefly: Antiviral activity against Coxsackievirus B3 H3 infected in HeLa-UVM cells assessed as host cell viability at 1 uM after 6 to 24 hrs by CCK8 assay. The format is functional. In general terms: Formazan colour is commonly taken as a measure of viable cells.
Data set [2] concerns Coxsackievirus B3. The experiment in a line: Antiviral activity against Coxsackievirus B3 H3 infected in HeLa-UVM cells assessed as host cell viability at 0.5 uM after 6 to 24 hrs by CCK8 assay. The format is functional.
Data set [3] in a line: Aqueous solubility of the compound by HPLC analysis. Type of data set: physicochemical. The conditions noted are these: buffer.
In data set [4] the target is Genome polyprotein (Coxsackievirus B3 (strain Nancy)) (UniProt P03313). The experiment in a line: Inhibition of Coxsackievirus B3 protease 3c using NMA-EALFQGPPVK-DNP as substrate at 10 uM incubated for 5 mins prior to substrate addition measured after 1 hr by FRET assay.
Chain of Genome polyprotein (Coxsackievirus B3 (strain Nancy)) (P03313 whole entry): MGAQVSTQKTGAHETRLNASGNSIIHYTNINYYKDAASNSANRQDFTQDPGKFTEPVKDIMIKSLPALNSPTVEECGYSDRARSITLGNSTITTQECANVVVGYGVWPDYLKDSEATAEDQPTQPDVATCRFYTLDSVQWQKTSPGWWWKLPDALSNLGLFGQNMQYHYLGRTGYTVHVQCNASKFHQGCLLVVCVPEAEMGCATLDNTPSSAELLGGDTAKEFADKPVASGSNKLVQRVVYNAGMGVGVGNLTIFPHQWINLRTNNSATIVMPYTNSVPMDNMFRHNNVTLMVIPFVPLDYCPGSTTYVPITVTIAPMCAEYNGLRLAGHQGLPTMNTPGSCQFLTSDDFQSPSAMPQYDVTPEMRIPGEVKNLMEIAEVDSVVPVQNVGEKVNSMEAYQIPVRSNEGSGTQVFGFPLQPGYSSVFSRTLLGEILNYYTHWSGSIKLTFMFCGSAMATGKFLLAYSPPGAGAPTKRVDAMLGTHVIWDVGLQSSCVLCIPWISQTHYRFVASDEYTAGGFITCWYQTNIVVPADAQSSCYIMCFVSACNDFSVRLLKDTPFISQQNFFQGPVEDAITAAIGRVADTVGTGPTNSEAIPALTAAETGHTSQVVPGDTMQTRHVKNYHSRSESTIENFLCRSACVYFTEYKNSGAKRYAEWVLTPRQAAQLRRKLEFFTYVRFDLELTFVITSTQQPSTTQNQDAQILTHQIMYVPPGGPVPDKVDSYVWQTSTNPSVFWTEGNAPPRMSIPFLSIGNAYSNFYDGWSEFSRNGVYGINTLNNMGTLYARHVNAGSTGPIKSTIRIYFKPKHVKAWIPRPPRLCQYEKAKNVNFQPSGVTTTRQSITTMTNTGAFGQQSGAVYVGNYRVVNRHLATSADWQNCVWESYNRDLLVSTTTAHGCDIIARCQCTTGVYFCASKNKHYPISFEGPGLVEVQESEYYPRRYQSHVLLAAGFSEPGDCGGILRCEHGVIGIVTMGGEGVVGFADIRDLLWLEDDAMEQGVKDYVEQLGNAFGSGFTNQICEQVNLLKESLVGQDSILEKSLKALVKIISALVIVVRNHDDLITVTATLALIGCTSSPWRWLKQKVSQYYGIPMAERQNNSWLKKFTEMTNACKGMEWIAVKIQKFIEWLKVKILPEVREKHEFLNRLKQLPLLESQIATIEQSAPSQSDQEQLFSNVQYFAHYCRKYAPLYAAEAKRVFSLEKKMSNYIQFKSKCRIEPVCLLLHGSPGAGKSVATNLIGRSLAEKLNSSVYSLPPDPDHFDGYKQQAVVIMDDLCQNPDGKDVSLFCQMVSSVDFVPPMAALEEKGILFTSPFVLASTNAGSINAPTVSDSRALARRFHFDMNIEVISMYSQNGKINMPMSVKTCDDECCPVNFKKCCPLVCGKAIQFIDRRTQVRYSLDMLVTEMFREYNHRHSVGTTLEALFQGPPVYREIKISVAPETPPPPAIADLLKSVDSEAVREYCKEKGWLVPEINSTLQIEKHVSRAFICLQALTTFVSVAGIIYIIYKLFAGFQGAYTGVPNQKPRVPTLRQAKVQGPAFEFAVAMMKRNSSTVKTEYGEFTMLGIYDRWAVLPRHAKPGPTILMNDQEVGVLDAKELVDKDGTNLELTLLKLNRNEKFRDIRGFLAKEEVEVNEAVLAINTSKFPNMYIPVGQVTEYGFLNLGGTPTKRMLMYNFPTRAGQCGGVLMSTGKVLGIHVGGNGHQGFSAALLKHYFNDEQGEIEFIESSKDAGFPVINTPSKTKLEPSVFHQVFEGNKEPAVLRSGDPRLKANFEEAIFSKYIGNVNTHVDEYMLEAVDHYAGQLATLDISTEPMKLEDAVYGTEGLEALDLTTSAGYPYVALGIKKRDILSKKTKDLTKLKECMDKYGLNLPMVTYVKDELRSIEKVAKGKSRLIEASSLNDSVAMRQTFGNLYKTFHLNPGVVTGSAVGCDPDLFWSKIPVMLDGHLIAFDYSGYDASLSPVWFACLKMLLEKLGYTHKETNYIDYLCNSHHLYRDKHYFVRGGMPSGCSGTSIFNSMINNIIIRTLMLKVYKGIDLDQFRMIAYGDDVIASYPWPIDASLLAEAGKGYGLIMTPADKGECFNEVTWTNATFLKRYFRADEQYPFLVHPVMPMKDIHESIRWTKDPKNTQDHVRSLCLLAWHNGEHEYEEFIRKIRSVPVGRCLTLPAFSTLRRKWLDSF

Chain of Genome polyprotein (P03313 1541-1723 limits assumed): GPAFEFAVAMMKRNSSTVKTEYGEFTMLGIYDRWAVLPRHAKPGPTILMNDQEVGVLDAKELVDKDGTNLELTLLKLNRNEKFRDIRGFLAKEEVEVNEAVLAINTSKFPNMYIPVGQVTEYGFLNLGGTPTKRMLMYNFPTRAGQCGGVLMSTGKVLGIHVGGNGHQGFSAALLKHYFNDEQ

For `Cc1cc(C(=O)N[C@H](C(=O)N[C@@H](Cc2ccc(F)cc2)C(=O)N[C@@H](/C=C/C(=O)OCc2cccc3cnccc23)CCC(N)=O)C(C)C)no1`, at Genome polyprotein, the IC50 was determined as 0.27 µM. The Activity with Coxsackievirus B3 [1] was determined as 50%.

`Cc1cc(C(=O)N[C@H](C(=O)N[C@@H](Cc2ccc(F)cc2)C(=O)N[C@@H](/C=C/C(=O)OCc2ccnc3ccccc23)CCC(N)=O)C(C)C)no1` displayed an IC50 against Genome polyprotein of 0.13 µM. The Activity in the data set with Coxsackievirus B3 [1] and with Coxsackievirus B3 [2] was 50% each time.

In the case of `Cc1cc(C(=O)N[C@H](C(=O)N[C@@H](Cc2ccc(F)cc2)C(=O)N[C@@H](/C=C/C(=O)OCc2ccc3[nH]ncc3c2)CCC(N)=O)C(C)C)no1`, at Genome polyprotein, the IC50 was 0.18 µM. Moreover, the Activity with Coxsackievirus B3 [1] is on record as 50%.

Consider `Cc1cc(C(=O)N[C@H](C(=O)N[C@@H](Cc2ccc(F)cc2)C(=O)N[C@@H](/C=C/C(=O)OCc2ccc3[nH]ncc3c2)CCC(N)=O)C(C)C)no1.Cl`, for which the solubility result in data set [3] was “soluble”.

As for `Cc1cc(C(=O)N[C@H](C(=O)N[C@@H](Cc2ccc(F)cc2)C(=O)N[C@@H](/C=C/C(=O)OCc2ccc3cnccc3c2)CCC(N)=O)C(C)C)no1`, the IC50 on Genome polyprotein came to 0.24 µM. For the same molecule, in the data set with Coxsackievirus B3 [1], the Activity came to 50%.

Turning to `Cc1cc(C(=O)N[C@H](C(=O)N[C@@H](Cc2ccc(F)cc2)C(=O)N[C@@H](/C=C/C(=O)OCc2ccc3cn[nH]c3c2)CCC(N)=O)C(C)C)no1`, on Genome polyprotein, the IC50 came out at 0.39 µM. For the same molecule, the Activity with Coxsackievirus B3 [1] came out at 50%.

Take `Cc1cc(C(=O)N[C@H](C(=O)N[C@@H](Cc2ccc(F)cc2)C(=O)N[C@@H](/C=C/C(=O)OCc2cccc3ncccc23)CCC(N)=O)C(C)C)no1`: half-maximal inhibition against Genome polyprotein (IC50) required 0.28 µM. Further, in the data set with Coxsackievirus B3 [1], the Activity is given as 50%.

For the molecule `Cc1cc(C(=O)N[C@H](C(=O)N[C@@H](Cc2ccc(F)cc2)C(=O)N[C@@H](/C=C/C(=O)OCc2cn3cccc(C)c3n2)CCC(N)=O)C(C)C)no1`, the IC50 on Genome polyprotein is 0.17 µM. The Activity in the data set on Coxsackievirus B3 [1] was determined as 50%.

`Cc1cc(C(=O)N[C@H](C(=O)N[C@@H](Cc2ccc(F)cc2)C(=O)N[C@@H](/C=C/C(=O)OCc2nc3ccccc3[nH]2)CCC(N)=O)C(C)C)no1`: the IC50 at Genome polyprotein is 0.24 µM. Besides, the Activity with Coxsackievirus B3 [1] stood at 50%.

Molecule `Cc1cc(C(=O)N[C@H](C(=O)N[C@@H](Cc2ccc(F)cc2)C(=O)N[C@@H](/C=C/C(=O)OCc2ccc3nc[nH]c3c2)CCC(N)=O)C(C)C)no1` had an IC50 at Genome polyprotein of 0.47 µM. In the data set on Coxsackievirus B3 [1], the Activity was 50%.

`Cc1cc(C(=O)N[C@H](C(=O)N[C@@H](Cc2ccc(F)cc2)C(=O)N[C@@H](/C=C/C(=O)OCc2cn3c(C)cccc3n2)CCC(N)=O)C(C)C)no1` returned an IC50 against Genome polyprotein of 0.16 µM. For the same molecule, the Activity in the data set on Coxsackievirus B3 [1] is reported as 50%.

At Genome polyprotein, `Cc1cc(C(=O)N[C@H](C(=O)N[C@@H](Cc2ccc(F)cc2)C(=O)N[C@@H](/C=C/C(=O)OCc2nc(-c3ccncc3)no2)CCC(N)=O)C(C)C)no1` displayed an IC50 of 0.65 µM. In addition, the Activity with Coxsackievirus B3 [1] worked out at 50%.

For the molecule `Cc1cc(C(=O)N[C@H](C(=O)N[C@@H](Cc2ccc(F)cc2)C(=O)N[C@@H](/C=C/C(=O)OCc2ccc3ccccc3c2)CCC(N)=O)C(C)C)no1`, the 50% inhibitory concentration (IC50) on Genome polyprotein is 0.41 µM. Moreover, the Activity in the data set on Coxsackievirus B3 [1] was 50%.

On Genome polyprotein, `Cc1cc(C(=O)N[C@H](C(=O)N[C@@H](Cc2ccc(F)cc2)C(=O)N[C@@H](/C=C/C(=O)OCc2cnc3ccccc3c2)CCC(N)=O)C(C)C)no1` came in with an IC50 of 0.25 µM. The Activity in the data set on Coxsackievirus B3 [1] and in the data set with Coxsackievirus B3 [2] was 50% each time.

`Cc1cc(C(=O)N[C@H](C(=O)N[C@@H](Cc2ccc(F)cc2)C(=O)O)C(C)C)no1` had an inhibition in data set [4] of 33.5%.

For `Cc1cc(C(=O)N[C@H](C(=O)N[C@@H](Cc2ccc(F)cc2)C(=O)N[C@@H](/C=C/C(=O)OCc2nc3cc(Cl)ccc3[nH]2)CCC(N)=O)C(C)C)no1`, on Genome polyprotein, half-maximal inhibition (IC50) required 0.65 µM. For the same molecule, in the data set on Coxsackievirus B3 [1], the Activity came to 50%.
